# Data published in patent US20200291018A1, “TAM KINASE INHIBITORS” (SYROS PHARMACEUTICALS, INC., priority 2017, published 2020).
# Experiments:
# MERTK = target: T1, MERTK (Homo sapiens, UniProt Q12866); assay: TR-FRET kinase activity assay, MERTK; type: biochemical; details: for IC50: TR-FRET activity assay, ATP at Km, 60 minutes, read-out: Mer IC50; for Mer/Flt3 ratio (FLT3 IC50/Mer IC50): ratio calculated as FLT3 IC50/Mer IC50
# T1 sequence (Q12866 21-999): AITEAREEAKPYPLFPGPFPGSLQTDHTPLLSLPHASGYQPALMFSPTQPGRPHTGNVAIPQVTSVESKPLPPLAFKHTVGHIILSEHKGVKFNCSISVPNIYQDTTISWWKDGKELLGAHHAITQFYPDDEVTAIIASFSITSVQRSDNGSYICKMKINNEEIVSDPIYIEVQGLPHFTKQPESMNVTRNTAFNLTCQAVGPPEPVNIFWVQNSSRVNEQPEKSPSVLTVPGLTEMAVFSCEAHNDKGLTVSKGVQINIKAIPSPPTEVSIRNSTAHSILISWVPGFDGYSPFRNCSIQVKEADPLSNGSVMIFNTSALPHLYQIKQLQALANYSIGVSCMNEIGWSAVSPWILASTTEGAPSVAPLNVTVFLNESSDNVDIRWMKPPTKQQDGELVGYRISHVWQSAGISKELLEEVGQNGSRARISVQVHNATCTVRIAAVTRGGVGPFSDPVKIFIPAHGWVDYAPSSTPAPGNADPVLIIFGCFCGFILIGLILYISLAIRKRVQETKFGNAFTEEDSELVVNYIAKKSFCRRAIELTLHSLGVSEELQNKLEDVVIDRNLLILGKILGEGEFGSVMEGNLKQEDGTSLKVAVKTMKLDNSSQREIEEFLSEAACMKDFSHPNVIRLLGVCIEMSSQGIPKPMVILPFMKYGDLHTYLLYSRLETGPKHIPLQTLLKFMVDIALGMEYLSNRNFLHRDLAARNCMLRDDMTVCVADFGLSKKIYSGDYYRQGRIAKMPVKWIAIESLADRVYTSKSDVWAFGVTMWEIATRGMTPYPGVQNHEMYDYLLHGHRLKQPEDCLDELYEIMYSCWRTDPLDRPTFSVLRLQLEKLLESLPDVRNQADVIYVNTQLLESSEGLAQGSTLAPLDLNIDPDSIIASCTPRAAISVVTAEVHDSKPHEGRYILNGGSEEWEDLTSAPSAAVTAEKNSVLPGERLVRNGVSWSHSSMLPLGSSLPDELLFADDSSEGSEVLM
# Summary of the method: (§1)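 Steps: compound, enzyme and labeled peptide combined at RT (50 mM HEPES pH 7.5, 10 mM MgCl2, 1 mM DTT); ATP added at Km; 60 min reaction; EDTA quench; Eu-antibody development 30 min in darkness; TR-FRET measured and IC50 fitted.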
# FLT3 = target: T2, FLT3 (Homo sapiens, UniProt P36888); assay: TR-FRET kinase activity assay, FLT3; type: biochemical; details: ATP at Km, 60 minutes
# T2 sequence (P36888 27-993): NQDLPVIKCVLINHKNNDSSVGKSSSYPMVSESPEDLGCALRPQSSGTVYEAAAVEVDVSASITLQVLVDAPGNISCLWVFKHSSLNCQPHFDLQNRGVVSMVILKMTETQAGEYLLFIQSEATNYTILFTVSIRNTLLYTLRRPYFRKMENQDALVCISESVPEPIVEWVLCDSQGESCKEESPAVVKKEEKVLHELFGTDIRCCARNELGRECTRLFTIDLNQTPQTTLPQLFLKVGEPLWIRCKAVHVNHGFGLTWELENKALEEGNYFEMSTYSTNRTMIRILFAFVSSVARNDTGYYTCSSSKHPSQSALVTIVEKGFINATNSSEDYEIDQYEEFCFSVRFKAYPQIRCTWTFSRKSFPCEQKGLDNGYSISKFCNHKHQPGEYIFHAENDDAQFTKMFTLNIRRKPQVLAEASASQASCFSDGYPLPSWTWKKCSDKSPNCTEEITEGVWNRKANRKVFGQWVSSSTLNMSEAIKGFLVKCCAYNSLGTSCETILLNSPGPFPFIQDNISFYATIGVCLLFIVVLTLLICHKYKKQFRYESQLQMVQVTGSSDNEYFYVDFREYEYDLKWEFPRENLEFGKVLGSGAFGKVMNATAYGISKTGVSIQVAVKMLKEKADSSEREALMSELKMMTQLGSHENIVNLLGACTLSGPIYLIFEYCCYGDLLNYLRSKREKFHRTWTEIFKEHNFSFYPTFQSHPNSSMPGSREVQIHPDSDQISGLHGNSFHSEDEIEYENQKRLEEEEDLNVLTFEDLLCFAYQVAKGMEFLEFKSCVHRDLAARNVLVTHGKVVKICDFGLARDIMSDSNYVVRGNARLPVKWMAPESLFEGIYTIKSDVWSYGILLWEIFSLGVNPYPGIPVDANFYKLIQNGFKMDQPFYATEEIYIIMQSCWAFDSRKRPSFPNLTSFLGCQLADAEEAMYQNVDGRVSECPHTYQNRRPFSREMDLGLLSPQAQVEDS
# Summary of the method: as §1
SMILES,IC50 (MERTK) [nM],Mer/Flt3 ratio (FLT3 IC50/Mer IC50) (MERTK),IC50 (FLT3) [nM]
COCCN1[C@@H]2CC[C@H]1C[C@H](Oc1ncc([C@H]3CC[C@H](O)CC3)c3nc(N[C@@H](C)CC(F)(F)F)ncc13)C2 [Compound 432],≤ 100,+++ (a ratio of >100),100 to 1000
CCCC(C)Nc1ncc2c(OC3CCN(CCOC)CC3)ncc([C@H]3CC[C@H](O)CC3)c2n1 (stereo partly drawn) [Compound 173],≤ 100,+++ (a ratio of >100),1000 to 10000
COC[C@@H](C)Nc1ncc2c(OC3CCOCC3)ncc([C@H]3CC[C@H](O)CC3)c2n1 [Compound 145],100 to 1000,++ (a ratio of between 10 and 100),1000 to 10000
CC1(C)CC(Nc2ncc3c(OC4CCOCC4)ncc([C@H]4CC[C@H](O)CC4)c3n2)C1 [Compound 144],≤ 100,+ (a ratio of >2.0 and <10),≤ 100
CCC(C)Nc1ncc2c(OC3CCOCC3)ncc([C@H]3CC[C@H](O)CC3)c2n1 (stereo partly drawn) [Compound 140],≤ 100,+++ (a ratio of >100),1000 to 10000
CCCC(C)Nc1ncc2c(OC3CCOCC3)ncc([C@H]3CC[C@H](N(C)C)CC3)c2n1 (stereo partly drawn) [Compound 185],≤ 100,++ (a ratio of between 10 and 100),100 to 1000
CCCC(C)Nc1ncc2c(=O)n(CCN3CCOCC3)cc([C@H]3CC[C@H](O)CC3)c2n1 (stereo partly drawn) [Compound 177],≤ 100,+++ (a ratio of >100),1000 to 10000
C[C@H](Nc1ncc2c(OC3CCNCC3)ncc([C@H]3CC[C@H](O)CC3)c2n1)c1ccccc1 [Compound 189],≤ 100,++ (a ratio of between 10 and 100),1000 to 10000
CCCC(C)Nc1ncc2c(N3CC[C@H](N(C)C)C3)ncc([C@H]3CC[C@H](O)CC3)c2n1 (stereo partly drawn) [Compound 159],≤ 100,++ (a ratio of between 10 and 100),1000 to 10000
CCCC(C)Nc1ncc2c(N3CC[C@@H](N(C)C)C3)ncc([C@H]3CC[C@H](O)CC3)c2n1 (stereo partly drawn) [Compound 156],≤ 100,++ (a ratio of between 10 and 100),1000 to 10000
CC(=O)N[C@H]1C[C@@H](Oc2ncc([C@H]3CC[C@H](O)CC3)c3nc(N[C@@H](C)CC(F)(F)F)ncc23)C1 [Compound 433],≤ 100,+++ (a ratio of >100),100 to 1000
CCCC(C)Nc1ncc2c(=O)n(CC3CCN(C)CC3)cc([C@H]3CC[C@H](O)CC3)c2n1 (stereo partly drawn) [Compound 193],≤ 100,+++ (a ratio of >100),1000 to 10000
COC(=O)N[C@H]1C[C@@H](Oc2ncc([C@H]3CC[C@H](O)CC3)c3nc(N[C@@H](C)CC(F)(F)F)ncc23)C1 [Compound 435],≤ 100,+++ (a ratio of >100),≤ 100
C[C@@H](CC(F)(F)F)Nc1ncc2c(O[C@@H]3C[C@H]4CC[C@@H](C3)N4C3COC3)ncc([C@H]3CC[C@H](O)CC3)c2n1 [Compound 437],≤ 100,+++ (a ratio of >100),100 to 1000
CCCC(C)Nc1ncc2c(OC3CCNCC3)ncc([C@H]3CC[C@H](O)CC3)c2n1 (stereo partly drawn) [Compound 166],≤ 100,+++ (a ratio of >100),100 to 1000
CCCC(C)Nc1ncc2c(N3CCC[C@H](N(C)C)C3)ncc([C@H]3CC[C@H](O)CC3)c2n1 (stereo partly drawn) [Compound 180],≤ 100,+++ (a ratio of >100),1000 to 10000
CCCC(C)Nc1ncc2c(NC3CCNCC3)ncc([C@H]3CC[C@H](O)CC3)c2n1 (stereo partly drawn) [Compound 158],≤ 100,+++ (a ratio of >100),100 to 1000
CCCC(C)Nc1ncc2c(N3CCC[C@@H](N(C)C)C3)ncc([C@H]3CC[C@H](O)CC3)c2n1 (stereo partly drawn) [Compound 188],≤ 100,+++ (a ratio of >100),1000 to 10000
CCCC(C)Nc1ncc2c(NC3CCN(C)CC3)ncc([C@H]3CC[C@H](O)CC3)c2n1 (stereo partly drawn) [Compound 154],≤ 100,+++ (a ratio of >100),100 to 1000
CCCC(C)Nc1ncc2c(O[C@H]3C[C@@H](O)C3)ncc([C@H]3CC[C@H](O)CC3)c2n1 (stereo partly drawn) [Compound 176],≤ 100,+++ (a ratio of >100),100 to 1000
CC(C)C(C)Nc1ncc2c(OC3CCNCC3)ncc([C@H]3CC[C@H](O)CC3)c2n1 (stereo partly drawn) [Compound 178],≤ 100,+++ (a ratio of >100),1000 to 10000
CCCC(C)Nc1ncc2c(OC3CCN(CCC(=O)N(C)C)CC3)ncc([C@H]3CC[C@H](O)CC3)c2n1 (stereo partly drawn) [Compound 170],≤ 100,+++ (a ratio of >100),1000 to 10000
CCCCNc1ncc2c(OC3CCN(C)CC3)ncc([C@H]3CC[C@H](O)CC3)c2n1 [Compound 131],≤ 100,+ (a ratio of >2.0 and <10),≤ 100
CCCC(C)Nc1ncc2c(OCCN(C)C)ncc([C@H]3CC[C@H](O)CC3)c2n1 (stereo partly drawn) [Compound 191],≤ 100,+++ (a ratio of >100),1000 to 10000
CC(=O)N1[C@@H]2CC[C@H]1C[C@H](Oc1ncc([C@H]3CC[C@H](O)CC3)c3nc(N[C@@H](C)CC(F)(F)F)ncc13)C2 [Compound 436],≤ 100,+++ (a ratio of >100),100 to 1000
CCC[C@H](C)Nc1ncc2c(OC3CCN(C)CC3)ncc([C@H]3CC[C@H](O)CC3)c2n1 [Compound 190],≤ 100,+++ (a ratio of >100),1000 to 10000
CCCC(C)Nc1ncc2c(OC3CCN(CC(=O)N(C)C)CC3)ncc([C@H]3CC[C@H](O)CC3)c2n1 (stereo partly drawn) [Compound 172],≤ 100,+++ (a ratio of >100),1000 to 10000
O[C@H]1CC[C@H](c2cnc(OC3CCNCC3)c3cnc(N[C@H]4CCOC4)nc32)CC1 [Compound 136],≤ 100,++ (a ratio of between 10 and 100),1000 to 10000
CCCC(C)Nc1ncc2c(O[C@@H]3C[C@H]4CC[C@@H](C3)O4)ncc([C@H]3CC[C@H](O)CC3)c2n1 (stereo partly drawn) [Compound 174],≤ 100,++ (a ratio of between 10 and 100),1000 to 10000
CCCC(C)Nc1ncc2c(N3CCC(NC)CC3)ncc([C@H]3CC[C@H](O)CC3)c2n1 (stereo partly drawn) [Compound 155],≤ 100,+++ (a ratio of >100),1000 to 10000
